Results on 29 molecules are retold here after ChEMBL document CHEMBL3396965, “Peptide inhibitors of the Escherichia coli DsbA oxidative machinery essential for bacterial virulence” (J Med Chem, 2015).

Active and inactive are the calls of the source. No cut-off for these calls is given here. Square brackets hold non-standard residues; d marks the D form. Peptide text beside a SMILES is read from it. Dip = N[C@H](C(=O)O)C(c1ccccc1)c1ccccc1; hPhe = N[C@@H](CCc1ccccc1)C(=O)O; Tic = O=C(O)[C@@H]1Cc2ccccc2CN1; Pip = O=C(O)[C@@H]1CCCCN1; hSer = N[C@@H](CCO)C(=O)O; Nva = CCC[C@H](N)C(=O)O

The target in assay [1] is T1, Thiol:disulfide interchange protein DsbA (Escherichia coli (strain K12), UniProt P0AEG4).
T1 sequence (P0AEG4 whole entry): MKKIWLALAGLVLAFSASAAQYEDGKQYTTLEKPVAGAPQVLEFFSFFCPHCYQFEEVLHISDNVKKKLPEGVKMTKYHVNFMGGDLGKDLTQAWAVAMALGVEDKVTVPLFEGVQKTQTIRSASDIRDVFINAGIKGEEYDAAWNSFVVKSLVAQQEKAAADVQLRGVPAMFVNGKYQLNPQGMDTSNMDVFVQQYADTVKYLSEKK
Kind of assay: Binding affinity to oxidized Escherichia coli DsbA by isothermal titration calorimetry assay. On the technique in general: In ITC the heat of successive injections is recorded.

Assay [2] concerns the target T2, Thioredoxin reductase 1, cytoplasmic (Homo sapiens) (UniProt Q16881).
T2 sequence (whole entry): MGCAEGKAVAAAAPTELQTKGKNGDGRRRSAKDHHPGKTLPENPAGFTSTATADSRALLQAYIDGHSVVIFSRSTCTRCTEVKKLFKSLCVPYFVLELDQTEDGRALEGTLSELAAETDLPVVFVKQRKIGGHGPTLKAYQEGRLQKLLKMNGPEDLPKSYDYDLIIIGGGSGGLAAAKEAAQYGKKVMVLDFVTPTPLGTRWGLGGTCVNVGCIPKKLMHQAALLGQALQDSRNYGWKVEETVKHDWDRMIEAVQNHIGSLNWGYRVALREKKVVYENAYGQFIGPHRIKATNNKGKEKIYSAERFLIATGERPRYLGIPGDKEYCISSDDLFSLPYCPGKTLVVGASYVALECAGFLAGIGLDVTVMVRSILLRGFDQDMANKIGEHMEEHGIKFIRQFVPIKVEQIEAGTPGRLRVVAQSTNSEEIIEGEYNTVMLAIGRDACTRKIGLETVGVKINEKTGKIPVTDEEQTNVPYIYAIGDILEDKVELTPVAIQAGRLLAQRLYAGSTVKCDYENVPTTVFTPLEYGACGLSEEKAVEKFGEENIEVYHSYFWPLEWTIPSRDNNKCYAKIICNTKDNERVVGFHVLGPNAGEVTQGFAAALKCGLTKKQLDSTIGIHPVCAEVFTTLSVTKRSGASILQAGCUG
Description: Inhibition of oxidized human TXR1 reductase activity by insulin reduction assay.

Assay [3] has as its target T3, Thiol:disulfide interchange protein DsbA (Escherichia coli (strain K12)) (UniProt P0AEG4).
T3 sequence (whole entry): T1 sequence (P0AEG4 whole entry)
Kind of assay: Binding affinity to Escherichia coli DsbA assessed as change in melting temperature at 2 mM by Thermal shift assay.

For assay [4], the target named is T3, Thiol:disulfide interchange protein DsbA (Escherichia coli (strain K12)). Description: Binding affinity to Escherichia coli DsbA assessed as change in melting temperature at 250 uM by Thermal shift assay.
The target is the same in assay [5]. Kind of assay: Binding affinity to Escherichia coli DsbA assessed as change in melting temperature at 4 mM by Thermal shift assay.
Assay [6] has the same target. Description: Binding affinity to Escherichia coli DsbA assessed as change in melting temperature at 500 uM by Thermal shift assay.
Assay [7] shares this target. Description: Binding affinity to Escherichia coli DsbA assessed as change in melting temperature at 1 mM by Thermal shift assay.
Assay [8] shares this target. Kind of assay: Binding affinity to Escherichia coli DsbA assessed as change in melting temperature at 125 uM by Thermal shift assay.

Broadly, the Kd is the equilibrium constant for the complex coming apart. Regarding Ac-PSPWATIDF-NH2, the Kd result in assay [1] was “Not Active”.

Consider Ac-SPWATCDF-NH2, for which the Kd in assay [1] (read-out: Kd) stood at 2.2 µM.

As to Ac-PWATCDF-NH2, in assay [1] (read-out: Kd), the dissociation constant (Kd) came out at 3 µM.

Regarding `CC(=O)N1CCC[C@H]1C(=O)N[C@@H](Cc1c[nH]c2ccccc12)C(=O)N[C@@H](C)C(=O)N[C@H](C(=O)N[C@@H](CS)C(=O)N[C@@H](CC(=O)O)C(=O)N[C@@H](CO)C(N)=O)[C@@H](C)O`, the inhibition entry in assay [2] was “inactive”.

Consider Ac-PSPWATADF-NH2, for which, in assay [1], the Kd entry is recorded as “Not Active”.

What is called ΔTm is the shift of the melting midpoint relative to a reference. Turning to Ac-PWATSDS-NH2, the ΔTm in assay [3] was found to be 1.5 °C; in assay [4], 0.2 °C; in assay [5] it was 2.9 °C; in assay [6], 0.2 °C; in assay [7], 0.6 °C; in assay [8] it was 0.1 °C. Also, in assay [1], the Kd result is recorded as “Not Active”.

Turning to `CCC[C@H](NC(=O)[C@@H](NC(=O)[C@H](C)NC(=O)[C@H](Cc1c[nH]c2ccccc12)NC(=O)[C@@H]1CCCN1C(=O)[C@H](CO)NC(=O)[C@@H]1CCCN1C(C)=O)[C@@H](C)O)C(N)=O` (Ac-PSPWAT[Nva]-NH2), the equilibrium dissociation constant (Kd) entry in assay [1] is listed as “Not Active”.

As to Ac-PAPWATCDF-NH2, the Kd in assay [1] (read-out: Kd) turned out to be 2.8 µM.

Ac-PSPWATM-NH2: in assay [1], the dissociation constant Kd result is listed as “Not Active”.

For Ac-PSPWAACDF-NH2, the Kd in assay [1] (read-out: Kd) amounted to 11.3 µM.

With Ac-PSPWATVDF-NH2, the Kd entry in assay [1] was “Not Active”.

In the case of `CC(=O)N1CCC[C@H]1C(=O)N[C@@H](CO)C(=O)N1Cc2ccccc2C[C@H]1C(=O)N[C@@H](Cc1c[nH]c2ccccc12)C(=O)N[C@@H](C)C(=O)N[C@H](C(=O)N[C@@H](CS)C(N)=O)[C@@H](C)O` (Ac-PS[Tic]WATC-NH2), the Kd in assay [1] (read-out: Kd) was found to be 13.1 µM.

On to Ac-PSPWATCDF-NH2, for which, in assay [1] (read-out: Kd), the Kd stood at 2.9 µM.

On to Ac-PSPWATSDF-NH2, for which the Kd result in assay [1] is given as “Not Active”.

As to Ac-PSPWATCD-NH2, the Kd in assay [1] (read-out: Kd) amounted to 10.7 µM.

As for Ac-PFATCDF-NH2, the Kd in assay [1] (read-out: Kd) was 5.9 µM.

Turning to `CC(=O)N1CCC[C@H]1C(=O)N[C@@H](CO)C(=O)N1CCCC[C@H]1C(=O)N[C@@H](Cc1c[nH]c2ccccc12)C(=O)N[C@@H](C)C(=O)N[C@H](C(=O)N[C@@H](CS)C(N)=O)[C@@H](C)O` (Ac-PS[Pip]WATC-NH2), in assay [1] (read-out: Kd), the Kd amounted to 12 µM.

Turning to `CC(=O)N1CCC[C@H]1C(=O)N[C@@H](CCc1ccccc1)C(=O)N[C@@H](C)C(=O)N[C@H](C(=O)N[C@@H](CS)C(=O)N[C@@H](CC(=O)O)C(=O)N[C@@H](CO)C(N)=O)[C@@H](C)O` (Ac-P[hPhe]ATCDS-NH2), the Kd in assay [1] (read-out: Kd) was 8.3 µM.

For the molecule Ac-PSPAATCDF-NH2, the Kd in assay [1] (read-out: Kd) was found to be 5.8 µM.

Turning to `CC(=O)N1CCC[C@H]1C(=O)N[C@@H](CO)C(=O)N1CCC[C@H]1C(=O)N[C@@H](Cc1c[nH]c2ccccc12)C(=O)N[C@@H](C)C(=O)N[C@H](C(=O)N[C@@H](CCO)C(N)=O)[C@@H](C)O` (Ac-PSPWAT[hSer]-NH2), the equilibrium dissociation constant (Kd) entry in assay [1] is given as “Not Active”.

For the molecule Ac-PSPWATC-NH2, the Kd in assay [1] (read-out: Kd) stood at 18 µM.

Turning to Ac-PSPWATN-NH2, the Kd result in assay [1] was “Not Active”.

Ac-PSAWATCDF-NH2: in assay [1] (read-out: Kd), the Kd is 5.5 µM.

Regarding Ac-PSPWATCAF-NH2, in assay [1] (read-out: Kd), the Kd was 3.1 µM.

As to Ac-PSPWATCDA-NH2, the Kd in assay [1] (read-out: Kd) stood at 4.4 µM.

With `CC(=O)N1CCC[C@H]1C(=O)N[C@@H](CO)C(=O)N1CCC[C@H]1C(=O)N[C@H](C(=O)N[C@@H](C)C(=O)N[C@H](C(=O)N[C@@H](CS)C(N)=O)[C@@H](C)O)C(c1ccccc1)c1ccccc1` (Ac-PSP[Dip]ATC-NH2), in assay [1] (read-out: Kd), the Kd was found to be 9.7 µM.

Turning to Ac-ASPWATCDF-NH2, in assay [1] (read-out: Kd), the Kd is 2.7 µM.

Consider `CC(=O)N1CCC[C@H]1C(=O)N[C@@H](CO)C(=O)N1CCC[C@H]1C(=O)N[C@@H](CCc1ccccc1)C(=O)N[C@@H](C)C(=O)N[C@H](C(=O)N[C@@H](CS)C(N)=O)[C@@H](C)O` (Ac-PSP[hPhe]ATC-NH2), for which the Kd in assay [1] (read-out: Kd) worked out at 14.9 µM.

As for Ac-PFATCDS-NH2, the thermal shift (ΔTm) in assay [3] was 7.2 °C; in assay [4], 1.7 °C; in assay [5], 9 °C; in assay [6], 3.3 °C; in assay [7], 5.3 °C; in assay [8], 0.6 °C. Further, the Kd in assay [1] (read-out: Kd) was determined as 13.1 µM.
